In patent EP4201929A1, “QUINOXALINE THIOREDOXIN REDUCTASE INHIBITORS” (geneXplain GmbH, priority 2021, dated 2023):

Legend:
SKNAS = test: Growth suppression, cancer cell line panel (resazurin); format: cell-based; conditions: SKNAS neuroblastoma, 48 hours
Experimental: (§1) Breast, colon, ovarian, cervical, liver and lung carcinoma cell lines were grown in DMEM supplemented with 10% FBS, and antibiotics were cultured at 37 °C and 5% CO2. Osteosarcoma, melanoma, lymphoma, neuroblastoma and leukemia cell lines were cultured in RPMI 1640 with 10% FBS and antibiotics. An oxygen concentration of 0.3% was obtained by flushing a sealed box containing the cells with premixed gas composed of 95% nitrogen (N2) and 5% CO2 (AGA AB, Sweden). To obtain an oxygen concentration of 0.05%, the cells were flushed with the premixed gas continuously throughout the experiment.
(§2) Cells were grown in 96-well plates at a density of 3000 cells per well with or without doxycycline and treated with compounds. After 48 hours of incubation the proliferative cell reagent resazurin (Thermo Fisher Scientific) was added to the cells. The degree of resazurin reduction, which reflects cell viability, was measured by microplate reader by monitoring the absorbance at 570 nm and 600 nm, according to the manufacturer.
(§3) Growth suppression by the soluble compound 1d*HCl in a panel of 27 cancer cell lines. The panel of cancer cell lines, including carcinomas of breast (MDA-MB231, SKBR3, T47D, MCF7; BT549, BT20, MDA-MB468), colon, (SW480, RKO, HT29, HCT116) ovarian (OVCAR3, OVCAR4, OVCAR8), cervical (SW756, C33A), liver (HEPG2) and lung (H23), osteosarcoma (SJSA and U2OS), melanoma (ME180), lymphoma (Raji, HDLM2), neuroblastoma (SKNAS, IMR32) and leukemia (NB4, K562) were treated with increasing concentrations of 1d*HCl: 0.4; 0.8; 1.6; 3.2; 6.4; 12.8; 25.6 µM in 96-well plates. After 48 hours of incubation the proliferative cell reagent resazurin was added to the cells. The degree of resazurin reduction, which reflects cell viability, was measured by microplate reader by monitoring the absorbance at 570 nm and 600 nm, according to the manufacturer, and the IC50 and AUC (area under curve) were determined (Table 2). As could be seen in Table 2, 1d*HCl suppressed the growth of cancer cell lines of a different origin, including carcinomas, osteosarcomas, melanoma, lymphoma, leukemia and neuroblastoma. These findings open up a possibility of the application of the present invention in anti-cancer therapy in a broad range of tumor types. Table 2: a) Breast cancer

OVCAR3 = test: as above; format: cell-based; conditions: OVCAR3 ovarian, 48 hours
Experimental: as §1, §2, §3

MDA-MB-468 = test: as above; format: cell-based; conditions: MDA-MB-468 breast, 48 hours
Experimental: as §1, §2, §3

MCF7 cells = test: Apoptosis detection by FACS (Annexin V staining); format: cell-based; conditions: 2 µM, 24h treatment
Experimental: Cells were placed on 12-well plate at a density of 30000/cm^2 and treated with compounds. After 24h incubation cells were harvested by trypsinization, fixed with 70% ethanol, treated with RNase A (0.25 mg/ml) and stained with Annexin V according to manufacturer's instructions (Thermo Fisher Scientific). Samples were analyzed on a Becton Dickinson FACScan. Data were analyzed by the CellQuest software, version 3.2.1.
To find out whether the growth suppression by 1d*HCl is due to triggering cell death by apoptosis, we performed the Annexin V-mediated staining of phosphatidylserine, exposed on surface of cells undergoing apoptotic cell death. We detected Annexin V-positive cells using FACS.

[1] = Growth suppression with selenium in culture medium; format: cell-based; conditions: selenium added to culture medium
Description: To find out whether the inhibition of TrxRl is the major mechanism of action of 1d*HCl, we addressed the question, whether stimulation of TrxRl activity will decrease the growth suppression activity of 1d*HCl. Since TrxR is a selenium-containing enzyme and the concentration of selenium is rate-limiting for TrxRl, we added selenium to culture medium to test whether selenium will alleviate the growth suppression by 1d*HCl.

B16 melanoma = B16 melanoma mouse model; format: in vivo, C57BL/6 mice; conditions: 10mg/kg i.p. every other day for 9 days, day 8 and day 9, compared to vehicle-treated mice
Experimental: Animal experiments were approved by the regional ethics committee for animal research (N391/11 and N26/11), appointed and under the control of the Swedish Board of Agriculture and the Swedish Court. The animal experiments were in accordance with national regulations (SFS 1988:534, SFS 1988:539 and SFS 1988:541).
For the B16 melanoma mouse model, 6-weeks-old female C57BL/6 mice were injected subcutaneously with 1x10^6 B16 cells. When the tumors reached 80-120 mm^3, 10 mg/kg of 1d*HCl were administered intraperitoneally every other day for 9 days (days 1, 3, 5, 7, 9). Tumor volume was measured by caliper three times per week, and the volume was calculated based on the formula (in ml): L/10*W/10*W/10*0.44 (L=length, W=width of tumor). Mice were sacrificed when tumors reached 2 cm^3 or upon bleeding.
We tested the anti-tumor activity of 1d*HCl using allogenic model of B16 mice. We inoculated mice with B16 melanoma cells. When the tumors reached 100 mm^3, we treated them with i.p. injection of 1d*HCl, 10mg/kg every other day for 9 days. […] The differences in tumor volume between untreated control mice and animals treated with 1d*HCl are all statistically significant. Thus, 1d*HCl has in vivo anti-tumor activity in this animal tumor model.

HCT116 cells = test: Growth suppression in the presence of antioxidant NAC; format: cell-based; conditions: HCT116, 5 mM NAC pre-treatment 16h; 2.5, 5 and 10 µM; 24h after treatment
Experimental: as §2
To find out whether oxidative stress plays a role in cancer cell death induced by 1d*HCl, we tested the extent of growth suppression by the treatment in the presence of antioxidant N-acetyl cysteine (NAC), which neutralize ROS. We pre-treated HCT116 cells with 5 mM NAC. After 16h of incubation with NAC, we treated HCT116 cells with 2.5, 5, and 10 µM of 1d*HCl. We measured the growth suppression 24h after treatment. […] Thus, we conclude that the mechanism of cancer cell growth suppression is dependent on the induction of oxidative stress by the compounds of the present invention.

HCT116-Cas9 = test: Growth suppression assay (resazurin); format: cell-based; conditions: 48 hours of incubation, hydrochloride
Experimental: (§4) Breast, colon, ovarian, cervical, liver and lung carcinoma cell lines were grown in DMEM supplemented with 10% FBS, and antibiotics were cultured at 37 °C and 5% CO2. […] To obtain an oxygen concentration of 0.05%, the cells were flushed with the premixed gas continuously throughout the experiment.
as §2

MCF7-Cas9 = test: Growth suppression assay (resazurin); format: cell-based; conditions: 48 hours of incubation, hydrochloride
Experimental: as §4, §2

Structure (SMILES): Cl.N#Cc1c(-c2cccnc2)[n+]([O-])c2cc(F)c(N3CCOCC3)cc2[n+]1[O-] [1d*HCl, 6-Fluoro-7-(morpholin-4-yl)-3-(pyridin-3-yl)quinoxaline-2-carbonitrile-1,4-dioxide hydrochloride]
- IC50 (SKNAS; Homo sapiens, SK-N-AS, resazurin, read-out: ICso): 4680 nM
- AUC (SKNAS; area under curve, 0.4-25.6 µM): 7,73
- IC50 (OVCAR3; Homo sapiens, OVCAR-3, resazurin): 2640 nM
- AUC (OVCAR3; area under curve, 0.4-25.6 µM): 4,813
- IC50 (MDA-MB-468; Homo sapiens, resazurin): 2780 nM
- AUC (MDA-MB-468; area under curve, 0.4-25.6 µM): 4,04
- Annexin V-positive cells (MCF7 cells): induced Annexin V-positive cells statistically significantly
- growth suppression in the presence of selenium [1]: less efficient
- tumor volume (B16 melanoma): lower volume of tumors
- growth suppression in the presence of NAC (HCT116 cells): almost completely abolished the growth suppression
- IC50 (HCT116-Cas9): 690 nM
- IC50 (MCF7-Cas9): 1600 nM
